Structures can show the parent of a compound that is named as a salt.
Legend:
[1] = dc cyclic voltammetry of ferrocene derivatives (redox potential); format: physicochemical; settings: for Eo: vs a standard calomel electrode, phosphate buffer at pH 7.0
glucose oxidase [2] = target: T1, glucose oxidase (Aspergillus niger, UniProt P13006); format: biochemical; settings: pH 7
[3] = target: T2, glucose enzyme electrode (glucose oxidase) (Aspergillus niger, UniProt P13006); experiment: steady-state current response of the 1,1'-dimethylferrocene/glucose oxidase enzyme electrode (interfering substances, KM'); settings: for interference to the electrodes response to glucose: added at normal blood concentration
T2 construct: purchased Boehringer Mannheim

glucose oxidase [4] = target: T1, glucose oxidase; experiment: substrate kinetics of glucose oxidase (relative rate, Km); format: biochemical; settings: substrates for glucose oxidase; β-D-glucose 100
[5] = vs NHE; cited from earlier work
[6] = spectrophotometric measurement (E, cm^-1 M^-1); format: physicochemical
Procedure: All optical spectra were recorded with a Pye-Unicam SP8 200 spectrophotometer with the sample and reference solutions in matched quartz micro-cuvettes of path length 1 cm.

glucose oxidase [7] = target: T1, glucose oxidase; settings: non-immobilized enzyme; cited from earlier work
glucose oxidase [8] = target: T1, glucose oxidase; settings: cited from earlier work

T1 sequence (P13006 23-605): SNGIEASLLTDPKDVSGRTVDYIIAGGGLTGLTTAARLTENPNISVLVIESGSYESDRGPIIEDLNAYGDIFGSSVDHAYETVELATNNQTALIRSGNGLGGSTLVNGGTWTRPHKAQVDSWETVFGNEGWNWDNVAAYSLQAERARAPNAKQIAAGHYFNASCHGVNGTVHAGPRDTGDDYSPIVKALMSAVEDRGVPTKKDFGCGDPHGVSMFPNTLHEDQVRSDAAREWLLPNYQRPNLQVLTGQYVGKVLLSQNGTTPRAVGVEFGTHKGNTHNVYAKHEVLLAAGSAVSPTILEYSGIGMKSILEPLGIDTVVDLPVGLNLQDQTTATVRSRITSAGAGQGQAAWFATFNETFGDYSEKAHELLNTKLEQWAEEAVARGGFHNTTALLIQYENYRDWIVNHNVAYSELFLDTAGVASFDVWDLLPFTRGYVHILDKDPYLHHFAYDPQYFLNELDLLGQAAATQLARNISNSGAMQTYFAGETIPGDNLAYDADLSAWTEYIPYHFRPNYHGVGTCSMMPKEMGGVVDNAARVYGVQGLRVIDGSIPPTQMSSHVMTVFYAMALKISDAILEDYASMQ
T2 sequence (P13006 23-605 limits assumed): as the sequence (P13006 23-605) above

For 1,1'-dimethylferrocene [1,1'-dimethyl-], which Eo [1] is on record?
Its Eo is 100 mV.

With vinyl ferrocene [vinyl-] as the compound, how does the “Eo/mV vs SCE” value ([1]; pH 7) read?
Its value is 250 mV.

And the “Rates of glucose oxidase oxidation” value (glucose oxidase [2])?
The value was 18.

For `OC1OC[C@@H](O)[C@H](O)[C@H]1O` (stereo partly drawn) [D-xylose], which “interference to the electrodes response to glucose” value (“interference” below) ([3]; 8 mM glucose) is on record?
The value was “did not cause any observable interference”.

With `Cl.N[C@@H](CS)C(=O)O` [L-cysteine HCl] as the compound, how does the “interference” value ([3]; 8 mM glucose) read?
The value was “did not cause any observable interference”.

Which “Relative Rate” value (glucose oxidase [4]) does the source give for `OC[C@H]1OC(O)C[C@@H](O)[C@@H]1O` (stereo partly drawn) [2-deoxy-D-glucose] here?
The value was 25.

For `[Fe+2].c1cc[cH-]c1.c1cc[cH-]c1` [ferrocene], which Eo [1] is on record?
Its Eo is 165 mV.

And the redox potential [5]?
The redox potential was “+422 mV”.

And the E [6]?
Its E is 335 cm⁻¹ M⁻¹.

With `N[C@@H](CCC(=O)N[C@@H](CS)C(=O)NCC(=O)O)C(=O)O` [reduced glutathione] as the compound, how does the “interference” value ([3]; 8 mM glucose) read?
Its value is “did not cause any observable interference”.

For `OC[C@H]1O[C@H](O)[C@H](O)[C@@H](O)[C@H]1O` [α-galactose], which “interference” value ([3]; 8 mM glucose) is on record?
Its value is “did not cause any observable interference”.

With `OC[C@H]1OC(O)[C@H](O)[C@@H](O)[C@@H]1O` (some centres unmarked) [Glucose] as the compound, how does the Km (glucose oxidase [7]) read?
The Km was 3 mM.

And the Km ([3]; glucose oxidase immobilized on the prototype ferrocene-based electrodes, kinetically-controlled, read-out: apparent Michaelis-Menten constant KM')?
The Km was 30 to 40 mM.

Which “mean increase in current” value ([3]; 8 mM glucose, final concentration of 0.13 mM) does the source give for `O=C1O[C@H]([C@@H](O)CO)C(O)=C1O` [L-ascorbate] here?
The value was “ca. 4.0%”.

For `OC[c-]1cccc1.OC[c-]1cccc1.[Fe+2]` [1,1'bis(hydroxymethyl)-], which Eo [1] is on record?
The Eo was 224 mV.

What about the E [6] of the same compound?
The E was 385 cm⁻¹ M⁻¹.

For `OC[C@H]1O[C@H](O)[C@@H](O)[C@@H](O)[C@@H]1O` [α-mannose], which “interference” value ([3]; 8 mM glucose) is on record?
The value was “did not cause any observable interference”.

For `O=CO` [sodium formate], which “interference” value ([3]; 8 mM glucose) is on record?
The value was “did not cause any observable interference”.

Which Eo [1] does the source give for `Cl[c-]1cccc1.[Fe+2].c1cc[cH-]c1` [chloro-] here?
Its Eo is 345 mV.

With `OC[C@H]1O[C@H](O)[C@H](O)[C@@H](O)[C@@H]1O` [α-D-glucose] as the compound, how does the “Relative Rate” value (glucose oxidase [4]) read?
Its value is 0.6.

Which “Relative Rate” value (glucose oxidase [4]) does the source give for `OC[C@H]1OC(O)[C@@H](O)[C@@H](O)[C@@H]1O` (stereo partly drawn) [D-mannose] here?
The value was 1.

Which “Relative Rate” value (glucose oxidase [4]) does the source give for 6-methyl-D-glucose here?
The value was 2.

Which “ks, rate of reaction of the natural electron acceptor with glucose oxidase” value (glucose oxidase [8]) does the source give for `O=O` [molecular oxygen] here?
Its value is 10^6 M^-1 S^-1.

With `OC[C@H]1O[C@@H](O)[C@H](O)[C@@H](O)[C@@H]1O` [β-D-glucose] as the compound, how does the “Relative Rate” value (glucose oxidase [4]) read?
The value was 100.

Which results are given for “1,1'-ferrocene dicarboxylic acid [1,1'-dicarboxylic acid]”?
Eo' ([1]; Example 4, procedure of Example 3, saturated calomel reference): +420 mV; Eo [1]: 385 mV

Reference: patent US4711245A, “Sensor for components of a liquid mixture” (Genetics International, Inc., priority 1983, dated 1987)
